Some test systems named below: HCT-116 colon; SNB-19 CNS; SN12C renal; MALME-3M melanoma; RXF 393 renal; K-562 leukemia; HS 578T breast; TK-10 renal; UO-31 renal; SF-268 CNS; NCI-H226 lung; U251 CNS; HOP-92 NSCLC; HL-60(TB) leukemia; LOX IMVI melanoma; NCI-H460 lung; OVCAR-8 ovarian; SNB-75 CNS.
Experiment in all cases: NCI anticancer screen, dose series, 48 h

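1) Cells in 96-well plates. 2) Compound, 48 h, 5 concentrations. 3) Linear interpolation between surrounding doses. 4) Unreached endpoint = highest concentration. Definition used: TGI = concentration required for complete inhibition of growth.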

With `Cc1nc(C)c(N2CCN(C(=O)O)CC2)c(=O)[nH]1`, the TGI in the assay on HCT-116 colon, in the assay on SNB-19 CNS, in the assay with SN12C renal, in the assay with MALME-3M melanoma, in the assay with RXF 393 renal and with K-562 leukemia was more than 100 µM throughout. Besides, the TGI in the assay on HS 578T breast, with TK-10 renal, in the assay on UO-31 renal, in the assay on SF-268 CNS, in the assay on NCI-H226 lung and with U251 CNS was more than 100 µM each time. For the same molecule, the TGI in the assay on HOP-92 NSCLC, in the assay on HL-60(TB) leukemia, in the assay on LOX IMVI melanoma, with NCI-H460 lung and in the assay with OVCAR-8 ovarian was more than 100 µM throughout.
Turning to `CC(C)CC1c2[nH]c3ccccc3c2C[C@H]2C(=O)NC(CCCCNC(=O)OC(C)(C)C)C(=O)N12` (some centres not stated), the TGI in the assay with HCT-116 colon was more than 100 µM; in the assay with SNB-19 CNS it was more than 100 µM; in the assay on SN12C renal, 77.4 µM; with MALME-3M melanoma it was 78.5 µM; in the assay with RXF 393 renal, 27.3 µM; in the assay with K-562 leukemia, more than 100 µM. Further, the TGI in the assay on HS 578T breast was 25.6 µM; in the assay with TK-10 renal, more than 100 µM; in the assay with UO-31 renal it was more than 100 µM; in the assay on SF-268 CNS, more than 100 µM; in the assay on NCI-H226 lung, more than 100 µM; in the assay with U251 CNS, more than 100 µM. Moreover, the TGI is 89.8 µM in the assay with HOP-92 NSCLC, 46.9 µM with HL-60(TB) leukemia, more than 100 µM in the assay with LOX IMVI melanoma and more than 100 µM with OVCAR-8 ovarian.
For the molecule `Oc1cnc2c(O)cccc2c1`, the TGI in the assay on HCT-116 colon, with SNB-19 CNS, in the assay with SN12C renal, in the assay with MALME-3M melanoma, in the assay with K-562 leukemia and in the assay on HS 578T breast was more than 100 µM in each case. The TGI with TK-10 renal is more than 100 µM; in the assay on UO-31 renal, more than 100 µM; in the assay on SF-268 CNS, more than 100 µM; in the assay on NCI-H226 lung, 85.5 µM; in the assay on U251 CNS, more than 100 µM; in the assay with HOP-92 NSCLC, more than 100 µM. Also, the TGI was more than 100 µM in the assay on HL-60(TB) leukemia; more than 100 µM with LOX IMVI melanoma; more than 100 µM with NCI-H460 lung; 79.9 µM with SNB-75 CNS; 80.5 µM in the assay on OVCAR-8 ovarian.
In the case of `CC(=O)Oc1c(OC(C)C)c(C)c(O[Si](C(C)C)(C(C)C)C(C)C)c2[nH]c3ccccc3c12`, the TGI in the assay on HCT-116 colon, in the assay on SNB-19 CNS, in the assay on SN12C renal, in the assay with RXF 393 renal, with K-562 leukemia and with HS 578T breast was more than 100 µM throughout. Further, the TGI with TK-10 renal, in the assay on UO-31 renal, in the assay on SF-268 CNS, with NCI-H226 lung, with U251 CNS and in the assay on HOP-92 NSCLC was more than 100 µM each time. The TGI with HL-60(TB) leukemia was 8.43 µM; in the assay with LOX IMVI melanoma, more than 100 µM; in the assay with NCI-H460 lung it was more than 100 µM; in the assay on SNB-75 CNS, more than 100 µM; in the assay with OVCAR-8 ovarian, more than 100 µM.
With `CCc1[nH]c(=O)c2oc3cc4ccccc4cc3c2c1C(=O)O`, the TGI in the assay on HCT-116 colon, in the assay with SNB-19 CNS, in the assay with SN12C renal, with MALME-3M melanoma, with RXF 393 renal and with HS 578T breast was more than 10 µM each time. The TGI in the assay on TK-10 renal, with UO-31 renal, with SF-268 CNS, with NCI-H226 lung, in the assay with HOP-92 NSCLC and in the assay on HL-60(TB) leukemia was more than 10 µM in each case. For the same molecule, the TGI in the assay with LOX IMVI melanoma, in the assay on NCI-H460 lung, with SNB-75 CNS and in the assay on OVCAR-8 ovarian was more than 10 µM in each case.
As to `Nc1ncnc2c1ncn2-c1ccc([N+](=O)[O-])cn1`, the TGI in the assay on HCT-116 colon, in the assay on SNB-19 CNS, in the assay on SN12C renal, with RXF 393 renal, in the assay on HS 578T breast and with TK-10 renal was more than 100 µM each time. Moreover, the TGI with UO-31 renal, with SF-268 CNS, in the assay on NCI-H226 lung, in the assay on U251 CNS, in the assay on HOP-92 NSCLC and with HL-60(TB) leukemia was more than 100 µM throughout. The TGI with LOX IMVI melanoma, in the assay on NCI-H460 lung, with SNB-75 CNS and with OVCAR-8 ovarian was more than 100 µM each time.
As for `CCOC(=O)c1nc2ccc(C(F)(F)F)cc2nc1Nc1ccc(F)cc1`, the TGI in the assay with HCT-116 colon, in the assay on SNB-19 CNS, in the assay with SN12C renal, in the assay with MALME-3M melanoma, in the assay on RXF 393 renal and with K-562 leukemia was more than 100 µM throughout. Besides, the TGI with HS 578T breast is 73.8 µM; in the assay on TK-10 renal, more than 100 µM; with UO-31 renal it was more than 100 µM; in the assay with SF-268 CNS, more than 100 µM; with HOP-92 NSCLC it was 98.9 µM; in the assay with HL-60(TB) leukemia, more than 100 µM. Moreover, the TGI is more than 100 µM with LOX IMVI melanoma, more than 100 µM in the assay on NCI-H460 lung, 84.3 µM in the assay on SNB-75 CNS and more than 100 µM in the assay with OVCAR-8 ovarian.
As for `CCOC(=O)c1nc2ccccc2nc1Oc1ccc(C#N)cc1`, the TGI with HCT-116 colon, with SNB-19 CNS, with SN12C renal, with MALME-3M melanoma, in the assay with RXF 393 renal and in the assay on K-562 leukemia was more than 100 µM in each case. The TGI with HS 578T breast, in the assay on TK-10 renal, in the assay with UO-31 renal, in the assay with SF-268 CNS, in the assay with NCI-H226 lung and in the assay on U251 CNS was more than 100 µM throughout. The TGI with HOP-92 NSCLC, with HL-60(TB) leukemia, with LOX IMVI melanoma, in the assay on NCI-H460 lung and in the assay with OVCAR-8 ovarian was more than 100 µM each time.

Source of the values: PubChem BioAssay (NCI).
